# Literature values in patent EP1112064B1, “METHOD FOR PREPARING NOVEL FENOFIBRATE GALENIC FORMULATIONS, GALENIC FORMULATIONS OBTAINED AND APPLICATIONS” (CLL Pharma, Arenas, priority 1998, dated 2000).
smiles,measurement,setting,value
"CC(C)OC(=O)C(C)(C)Oc1ccc(C(=O)c2ccc(Cl)cc2)cc1 [fénofibrate, 2-(4-(4-chlorobenzoyl)-phénoxy)-2-méthyl propionate d'isopropyle]",résorption intestinale,administered in sunflower oil,presque complète
same,demi-vie d'élimination,in vivo,~20 heures
same,dose de fénofibrate administrée résorbée,"one 300 mg capsule during a meal, reaches the blood as fenofibric acid",60%
